# Reference: US4500525A, “Pharmacologically active pyrazolo/4,3-c/pyridines” (Gruppo Lepetit S.p.A., priority 1982, dated 1985)
# Where a name gives a salt, the structure may show the parent alone.
# Target: α1 adrenoceptor
# Assay: displacement of ^3 H-prazosin specifically bound in rat brain homogenate (radioligand binding)
# Conditions: ^3 H Prazosin binding, Ki calculated from IC50, read-out: K1 (nM) ^3 H Prazosin
# Description: The compounds of the invention were tested […] for their ability to compete with labelled ligands of α1, α2 -adrenergic,and dopaminergic receptors. Said tests were made essentially following:
# (b) the method described by P. Greengrass et al., European Journal of Pharmacology, Vol. 55, pp. 323-326, (1979), which uses the specific displacement of ^3 H-prazosin specifically bound in rat brain homogenate, for the identification of substances interacting with the so called "α1 "adrenoceptor;
# The above mentioned methods are radioligand binding assays and are based on the knowledge that many natural or synthetic physiologically active substances such as neurotransmitters, hormones, and others, specifically link to cellular receptors, generally of proteic nature. They are generally obtained from a tissue or organ of a suitable test-animal after isolation and homogenization of said tissue or organ.
# The homogenate is twice centrifugated to separate and partially purify the receptorial fraction (synaptosomes).
# The labelled substances employed are known to specifically bind their receptors, so the drug-receptor dissociation constants obtained for each test compound under standard conditions are a measure of their actual binding affinities. The validation of the above methods in predicting a possible pharmacological activity was carried out comparing the in vitro binding constants of a number of […] agonist or antagonist of the adrenergic or dopaminergic system with their in vivo activities. The α1 -adrenergic activity is essentially correlated with a peripheral vasodilatation. The α2 -adrenergic activity is essentially correlated with a hypotensive action of central origin, and the dopaminergic activity is correlated with a neuroleptic action. IC50 values, defined as the drug concentration that cause 50% inhibition of the specific ^3 H ligant binding, are observed by incubating from 5 to 7 different dilutions of the tested compound in duplicate or triplicate. Ki, inhibition constant, values are calculated from the following formula: [formula] wherein IC50 is defined as above, C is the concentration of the ^3 H ligand, and KD is the dissociation constant of the ^3 H ligand-receptor complex.
row,SMILES,Ki
1,"Fc1ccc(-c2n[nH]c3c2CNCC3)cc1 [Example 19, 3-(4-fluorophenyl)-4,5,6,7-tetrahydro-1H-pyrazolo/4,3-c/pyridine]",69.2 nM
2,"Fc1ccc(-c2nn(CCc3ccccc3)c3c2CNCC3)cc1 [Example 110, 3-(4-fluorophenyl)-1-(2-phenylethyl)-4,5,6,7-tetrahydro-1H-pyrazolo/4,3-c/pyridine, methanesulfonate]",40.3 nM
3,"CCCCCn1nc(-c2ccc(F)cc2)c2c1CCNC2 [Example 122, 3-(4-fluorophenyl)-4,5,6,7-tetrahydro-1-n.pentyl-1H-pyrazolo/4,3-c/pyridine, methanesulfonate]",8.7 nM
4,"COc1ccc(Cn2nc(-c3ccc(F)cc3)c3c2CCNC3)cc1 [Example 105, 3-(4-fluorophenyl)-1-(4-methoxyphenylmethyl)-4,5,6,7-tetrahydro-1H-pyrazolo/4,3-c/pyridine, hydrochloride]",6.23 nM
5,"CN1CCc2c(c(-c3ccc(F)cc3)nn2CCc2ccccc2)C1 [Example 138, 3-(4-fluorophenyl)-1-(2-phenylethyl)-5-methyl-4,5,6,7-tetrahydro-1H-pyrazolo/4,3-c/pyridine]",40.3 nM
6,"COc1ccc(Cn2nc(-c3ccc(F)cc3)c3c2CCN(C)C3)cc1 [Example 133, 3-(4-fluorophenyl)-1-(4-methoxyphenylmethyl)-5-methyl-4,5,6,7-tetrahydro-1H-pyrazolo/4,3-c/pyridine, hydrochloride]",12.4 nM
7,"CCCCCn1nc(-c2ccc(F)cc2)c2c1CCN(C)C2 [Example 150, 3-(4-fluorophenyl))-4,5,6,7-tetrahydro-5-methyl-1-n.pentyl-1H-pyrazolo/4,3-c/pyridine, methanesulfonate]",18.3 nM
8,"CN1CCc2c(c(-c3ccc(Cl)cc3)nn2Cc2ccccc2)C1 [Example 146, 3-(4-chlorophenyl)-4,5,6,7-tetrahydro-5-methyl-1-phenylmethyl-1H-pyrazolo/4,3-c/pyridine, methanesulfonate]",30.9 nM
9,"CC(c1ccccc1)n1nc(-c2ccc(F)cc2)c2c1CCNC2 (centres unmarked) [Example 116, 3-(4-fluorophenyl)-4,5,6,7-tetrahydro-1-(1-phenylethyl)-1H-pyrazolo/4,3-c/pyridine, methanesulfonate]",7.24 nM
10,"CN1CCc2c(c(-c3ccccc3)nn2Cc2ccccc2)C1 [Example 145, 4,5,6,7-tetrahydro-5-methyl-3-phenyl-1-phenylmethyl-1H-pyrazolo/4,3-c/pyridine, methanesulfonate]",49.4 nM
11,"Cc1ccc(-c2nn(Cc3ccccc3)c3c2CNCC3)cc1 [Example 119, 4,5,6,7-tetrahydro-3-(4-methylphenyl)-1-phenylmethyl-1H-pyrazolo/4,3-c/pyridine, hydrochloride]",5.86 nM
12,"CC(C)n1nc(-c2ccc(F)cc2)c2c1CCNC2 [Example 95, 3-(4-fluorophenyl)-1-(2-methylethyl)-4,5,6,7-tetrahydro-1H-pyrazolo/4,3-c/pyridine, methanesulfonate]",32.2 nM
13,"CCCCCCn1nc(-c2ccc(F)cc2)c2c1CCNC2 [Example 123, 3-(4-fluorophenyl)-4,5,6,7-tetrahydro-1-n.hexyl-1H-pyrazolo/4,3-c/pyridine, methanesulfonate]",13 nM
14,"Cn1nc(-c2ccccc2)c2c1CCNC2 [Example 96, 1-methyl-3-phenyl-4,5,6,7-tetrahydro-1H-pyrazolo/4,3-c/pyridine, methanesu lfonate]",52 nM
15,"Cc1ccc(-c2nn(Cc3ccccc3)c3c2CN(C)CC3)cc1 [Example 147, 4,5,6,7-tetrahydro-5-methyl-3-(4-methylphenyl)-1-phenylmethyl-1H-pyrazolo/4,3-c/pyridine, methanesulfonate]",20.1 nM
16,"CCCCn1nc(-c2ccc(F)cc2)c2c1CCNC2 [Example 113, 3-(4-fluorophenyl)-1-n.butyl-4,5,6,7-tetrahydro-1H-pyrazolo/4,3-c/pyridine, methanesulfonate]",17.3 nM
17,"Cc1ccc(-c2n[nH]c3c2CNCC3)cc1 [Example 32, 3-(4-methylphenyl)-4,5,6,7-tetrahydro-1H-pyrazolo/4,3-c/pyridine, dihydrochloride]",92.2 nM
18,"CCCn1nc(-c2ccc(F)cc2)c2c1CCN(C)C2 [Example 140, 3-(4-fluorophenyl)-1-n.propyl-5-methyl-4,5,6,7-tetrahydro-1H-pyrazolo/4,3-c/pyridine, methanesulfonate]",73.5 nM
19,"Fc1ccc(-c2nn(Cc3ccc(Cl)c(Cl)c3)c3c2CNCC3)cc1 [Example 108, 1-(3,4-dichlorophenylmethyl)-3-(4-fluorophenyl)-4,5,6,7-tetrahydro-1H-pyrazolo/4,3-c/pyridine, hydrochloride]",7.48 nM
20,"CN1CCc2c(c(-c3ccc(F)cc3)nn2Cc2ccccc2Cl)C1 [Example 142, 1-(2-chlorophenylmethyl)-3-(4-fluorophenyl)-5-methyl-4,5,6,7-tetrahydro-1H-pyrazolo/4,3-c/pyridine, methanesulfonate]",36.3 nM
21,"CCCn1nc(-c2ccc(F)cc2)c2c1CCNC2 [Example 112, 3-(4-fluorophenyl)-1-n.propyl-4,5,6,7-tetrahydro-1H-pyrazolo/4,3-c/pyridine, methanesulfonate]",24.2 nM
22,"Fc1ccc(-c2nn(CCCc3ccccc3)c3c2CNCC3)cc1 [Example 111, 3-(4-fluorophenyl)-1-(3-phenylpropyl)-4,5,6,7-tetrahydro-1H-pyrazolo/4,3-c/pyridine, methanesulfonate]",12.9 nM
23,"CCCCCCn1nc(-c2ccc(F)cc2)c2c1CCN(C)C2 [Example 151, 3-(4-fluorophenyl)-4,5,6,7-tetrahydro-1-n.hexyl-5-methyl-1H-pyrazolo/4,3-c/pyridine, methanesulfonate]",15.2 nM
24,"CN1CCc2c(c(-c3ccc(F)cc3)nn2Cc2ccc(Cl)cc2)C1 [Example 132, 1-(4-chlorophenylmethyl)-3-(4-fluorophenyl)-5-methyl-4,5,6,7-tetrahydro-1H-pyrazolo/4,3-c/pyridine, methanesulfonate]",20.8 nM

# The remaining compounds from weak to strong by Ki, led by results:
row,Ki,SMILES
1,97.6 nM,"CC(C)N1CCc2c(c(-c3ccc(F)cc3)nn2Cc2ccccc2)C1 [Example 162, 3-(4-fluorophenyl)-5-(2-methylethyl)-1-phenylmethyl-4,5,6,7-tetrahydro-1H-pyrazolo/4,3-c/pyridine]"
2,42.4 nM,"Fc1ccc(-c2nn(Cc3ccccc3)c3c2CN(C2CCCC2)CC3)cc1 [Example 163, 5-cyclopentyl-3-(4-fluorophenyl)-1-phenylmethyl-4,5,6,7-tetrahydro-1H-pyrazolo/4,3-c/pyridine, hydrochloride]"
3,38.6 nM,"c1ccc(Cn2nc(-c3ccccc3)c3c2CCNC3)cc1 [Example 117, 4,5,6,7-tetrahydro-3-phenyl-1-phenylmethyl-1H-pyrazolo/4,3-c/pyridine, hydrochloride]"
4,32.8 nM,"CCCCn1nc(-c2ccc(F)cc2)c2c1CCN(C)C2 [Example 141, 3-(4-fluorophenyl)-1-n.butyl-5-methyl-4,5,6,7-tetrahydro-1H-pyrazolo/4,3-c/pyridine, methanesulfonate]"
5,21.9 nM,"CN1CCc2c(c(-c3ccc(F)cc3)nn2Cc2ccc(Cl)c(Cl)c2)C1 [Example 136, 1-(3,4-dichlorophenylmethyl)-3-(4-fluorophenyl)-5-methyl-4,5,6,7-tetrahydro-1H-pyrazolo/4,3-c/pyridine]"
6,21.2 nM,"CN1CCc2c(c(-c3ccc(F)cc3)nn2Cc2ccccc2)C1 [Example 128, 3-(4-fluorophenyl)-5-methyl-1-phenylmethyl-4,5,6,7-tetrahydro-1H-pyrazolo/4,3-c/pyridine, methanesulfonate]"
7,20.6 nM,"CN1CCc2c(c(-c3ccc(F)cc3)nn2CCCc2ccccc2)C1 [Example 139, 3-(4-fluorophenyl)-1-(3-phenylpropyl)-5-methyl-4,5,6,7-tetrahydro-1H-pyrazolo/4,3-c/pyridine, hydrochloride]"
8,17.3 nM,"Fc1ccc(-c2nn(Cc3ccccc3Cl)c3c2CNCC3)cc1 [Example 114, 1-(2-chlorophenylmethyl)-3-(4-fluorophenyl)-4,5,6,7-tetrahydro-1H-pyrazolo/4,3-c/pyridine, methanesulfonate]"
9,14.5 nM,"Clc1ccc(-c2nn(Cc3ccccc3)c3c2CNCC3)cc1 [Example 118, 3-(4-chlorophenyl)-4,5,6,7-tetrahydro-1-phenylmethyl)-1H-pyrazolo/4,3-c/pyridine, hydrochloride]"
10,11.1 nM,"Fc1ccc(-c2nn(Cc3ccc(Cl)cc3)c3c2CNCC3)cc1 [Example 103, 1-(4-chlorophenylmethyl)-3-(4-fluorophenyl)-4,5,6,7-tetrahydro-1H-pyrazolo/4,3-c/pyridine, hydrochloride]"
11,8.14 nM,"CC(c1ccccc1)n1nc(-c2ccc(F)cc2)c2c1CCN(C)C2 (centres unmarked) [Example 144, 3-(4-fluorophenyl)-4,5,6,7-tetrahydro-5-methyl-1-(1-phenylethyl)-1H-pyrazolo/4,3-c/pyridine, hydrochloride]"
